Source: publication PMC11091072, “Targeting bacterial nickel transport with aspergillomarasmine A suppresses virulence-associated Ni-dependent enzymes” (Nature Communications, 2024)
“And” between values parts separate entries of the source, which are not always exact repeats. Identical values can stand only once. Like-named read-outs stand apart in the source and are kept apart here.

Key:
[1] = tested on: NikA; type: binding, Klebsiella pneumoniae; details: 100 μM
[2] = tested on: K. pneumoniae; type: cell-based, Klebsiella pneumoniae; details: 200 μM, 24 h exposure
[3] = tested on: S. aureus urease activity (whole cell); type: cell-based, Staphylococcus aureus; details: S. aureus, artificial urine, 24 h
[4] = tested on: HEK293 cells; experiment: HEK293 cytotoxicity assay (Cell Titer Glo 2.0)
[5] = tested on: S. aureus; type: cell-based, Staphylococcus aureus; details: 200 μM, 24 h
[6] = biological target: NikA (Klebsiella pneumoniae, UniProt A6TFA3); type: binding
NikA (Klebsiella pneumoniae, UniProt A6TFA3), sequence (A6TFA3 entry or part of it): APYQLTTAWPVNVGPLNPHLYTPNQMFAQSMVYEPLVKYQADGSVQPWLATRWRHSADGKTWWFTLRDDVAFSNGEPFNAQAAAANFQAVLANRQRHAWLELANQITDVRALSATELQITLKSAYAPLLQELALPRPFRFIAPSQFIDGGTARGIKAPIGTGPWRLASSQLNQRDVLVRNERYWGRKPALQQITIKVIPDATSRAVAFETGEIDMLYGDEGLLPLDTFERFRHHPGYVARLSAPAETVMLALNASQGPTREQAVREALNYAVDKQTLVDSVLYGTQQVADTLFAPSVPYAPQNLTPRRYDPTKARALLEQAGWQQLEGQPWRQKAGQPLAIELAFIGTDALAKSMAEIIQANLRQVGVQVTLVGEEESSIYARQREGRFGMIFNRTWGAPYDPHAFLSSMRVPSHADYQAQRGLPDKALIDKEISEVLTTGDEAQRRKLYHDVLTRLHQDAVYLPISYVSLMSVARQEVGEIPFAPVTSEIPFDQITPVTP

[7] = tested on: K. pneumoniae urease activity (Ni2+ uptake); experiment: Competition of Zn-AMA with Ni-(L-His)2 (urease-dependent pH); type: cell-based, Klebsiella pneumoniae; details: Zn-AMA 0 μM
[8] = tested on: K. pneumoniae; type: cell-based, Klebsiella pneumoniae; details: Chelex-treated nitrogen-limited medium
[9] = pH 7.5, 2:1 complex, cited from earlier work

N[C@@H](CN[C@@H](CN[C@@H](CC(=O)O)C(=O)O)C(=O)O)C(=O)O.[Co+2] [Co-AMA]
effect on stability of recombinant NikA [1]: increase NikA’s stability | bacterial viability (spot dilutions) [2]: do not affect bacterial viability | effect on urease activity [3]: inhibited urease activity similarly | HEK 293T cytotoxicity assay raw signal ([4]; Co-AMA 0.5 μg/mL): 622984 and 609603 and 578025 | HEK 293T cytotoxicity assay raw signal ([4]; Co-AMA 1 μg/mL): 648007 and 588509 and 584554 | HEK 293T cytotoxicity assay raw signal ([4]; Co-AMA 2 μg/mL): 653814 and 579149 and 584837 | HEK 293T cytotoxicity assay raw signal ([4]; Co-AMA 4 μg/mL): 624260 and 594763 and 611086 | HEK 293T cytotoxicity assay raw signal ([4]; Co-AMA 8 μg/mL): 684397 and 665902 and 598886 | HEK 293T cytotoxicity assay raw signal ([4]; Co-AMA 16 μg/mL): 641409 and 612229 and 581248 | HEK 293T cytotoxicity assay raw signal ([4]; Co-AMA 32 μg/mL): 567905 and 544667 and 548517 | HEK 293T cytotoxicity assay raw signal ([4]; Co-AMA 64 μg/mL): 578062 and 599992 and 521662 | HEK 293T cytotoxicity assay raw signal ([4]; Co-AMA 128 μg/mL): 421336 and 474275 and 462640 | HEK 293T cytotoxicity assay raw signal ([4]; Co-AMA 256 μg/mL): 411884 and 395016 and 434679 | HEK 293T cytotoxicity assay raw signal ([4]; Co-AMA 512 μg/mL): 266726 and 265058 and 263860 | reduction in HEK293 cell viability ([4]; highest test concentration 512 μg/mL, 48 h): 50% | bacterial viability (spot dilutions) [5]: not lethal to bacteria | n (stoichiometry, ITC) ([6]; 37 °C, pH 7.5): 1.06 | ∆G ([6]; 37 °C, pH 7.5): -28.9 kJ/mol | ∆H ([6]; 37 °C, pH 7.5): -43.9 kJ/mol | −T∆S ([6]; 37 °C, pH 7.5): 15.1 kJ/mol | Kd ([6]; read-out: KD for NikA (ITC), 25 mM Tris-HCl, 150 mM NaCl, 0.1% Triton X-100, pH 7.5, 37 °C): 13 ± 0.4 µM

N[C@@H](Cc1c[nH]cn1)C(=O)O [L-His, L-histidine, reference compound]
pH of culture (Zn-AMA v.s. L-His) ([7]; L-His 3.12 μM): 8.06 and 8.1 | pH of culture (Zn-AMA v.s. L-His) ([7]; L-His 6.25 μM): 8.07 and 8.1 | pH of culture (Zn-AMA v.s. L-His) ([7]; L-His 12.5 μM): 7.85 and 7.9 | growth with urea as sole nitrogen source [8]: not viable | Kd ([9]; read-out: KD1 for Ni^2+): 0.64 µM | Kd ([9]; read-out: KD2 for Ni^2+): 8.8 µM
